Data published in patent US12220419B2, “BCL-2 inhibitors” (Newave Pharmaceutical Inc., priority 2018, dated 2025).
Read-outs that look alike come from different tables or passages of the source.

How the values were obtained:
Mcl-1 = Mcl-1 (Homo sapiens (Human), UniProt Q07820); conditions: cited from earlier work
RS4;11 cells = conditions: cited from earlier work
CLL = conditions: average, read-out: average EC50, apoptosis in CLL; cited from earlier work
RS4; 11 xenografts = conditions: single dose of 100 mg/kg; cited from earlier work
[1] = in vivo; cited from earlier work
[2] = cited from earlier work
Bcl-w = Bcl-w (Homo sapiens (Human), UniProt Q92843); conditions: cited from earlier work
Chain of Bcl-w (Q92843 whole entry): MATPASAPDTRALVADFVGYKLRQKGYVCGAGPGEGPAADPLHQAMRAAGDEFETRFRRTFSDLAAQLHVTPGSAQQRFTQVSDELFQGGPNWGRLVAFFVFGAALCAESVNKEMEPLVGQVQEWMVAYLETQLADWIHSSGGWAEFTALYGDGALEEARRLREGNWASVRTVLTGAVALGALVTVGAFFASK

SCLC H146 cell line = conditions: read-out: IC50 against SCLC H146 cell line; cited from earlier work
H345 xenograft = conditions: 100 mg/kg/day, H345 xenograft model; cited from earlier work
[3] = tested on: small-cell lung cancer xenograft; conditions: oral administration, alone; cited from earlier work
[4] = tested on: acute lymphoblastic leukemia xenograft; conditions: oral administration, alone; cited from earlier work
circulating platelets = conditions: clinical trial, single agent; cited from earlier work
BCL-2 = BCL-2 (Homo sapiens (Human), UniProt P10415); experiment: BCL-2 competition binding (fluorescence polarization) assay; conditions: read-out: BCL2 IC50
Chain of BCL-2 (P10415 whole entry): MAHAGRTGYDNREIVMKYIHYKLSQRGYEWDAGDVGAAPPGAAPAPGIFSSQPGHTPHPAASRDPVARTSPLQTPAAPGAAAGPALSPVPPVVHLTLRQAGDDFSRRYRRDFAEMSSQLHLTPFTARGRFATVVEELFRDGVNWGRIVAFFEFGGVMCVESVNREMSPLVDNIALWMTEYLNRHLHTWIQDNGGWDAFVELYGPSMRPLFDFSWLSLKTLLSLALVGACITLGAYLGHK
Procedure: Biological Example 1: BCL-2 Competition Binding (Fluorescence Polarization) Assay
The fluorescence-labeled 23 amino acid peptide BH3 was purchased from CalBiochem ([…]). […] This binding assay was performed in 96-well plate and with each assay contained 15 and 30 nM of labeled peptide and purified BCL-2 protein (purchased from R&D Systems, Inc). The assay buffer contained 20 mM Hepes (pH 7.0), 50 mM KCl, 5 mM MgCl2, 20 mM Na2MoO4, 0.1 mg/ml Bovine Gamma Globulin and 0.01% NP40. Compounds were diluted in DMSO and added to the final assay with concentration range from 20 μM to 2 nM. The polarization degree (mP) value was determined by BioTek Synergy II with background subtraction after 3 hours of incubation at room temperature. IC50 was calculated using Prism software with sigmoidal dose-response curve fitting. ABT-737 was used as reference compound. Such assays, carried out with a range of doses of test compounds, allowed the determination of an approximate IC50 value.

[5] = tested on: BCL-2-dependent acute lymphoblastic leukemia (ALL) cell line RS4;11; experiment: In vitro anti-proliferation assay (ATPlite luminescence) in RS4;11; assay type: cell-based; conditions: RS4;11 cells, about 72 hours, medium with 5% FBS or 10% normal human serum
Procedure: Cell antiproliferation was assayed by PerkinElmer ATPlite™ Luminescence Assay System. Briefly, the various test cancer cell lines were plated at a density of about 1×10^4 cells per well in Costar 96-well plates, and were incubated with different concentrations of compounds for about 72 hours in medium supplemented with 5% FBS or 10% normal human serum (NHS). One lyophilized substrate solution vial was then reconstituted by adding 5 mL of substrate buffer solution, and was agitated gently until the solution was homogeneous. About 50 μL of mammalian cell lysis solution was added to 100 μL of cell suspension per well of a microplate, and the plate was shaken for about five minutes in an orbital shaker at 700 rpm. This procedure was used to lyse the cells and to stabilize the ATP. Next, 50 μL substrate solution was added to the wells and microplate was shaken for five minutes in an orbital shaker at 700 rpm. Finally, the luminescence was measured by a PerkinElmer TopCount® Microplate Scintillation Counter. Such assays, carried out with a range of doses of test compounds, allowed the determination of the cellular anti-antiproliferative IC50 of the compounds of the present invention.

Chain of Mcl-1 (Q07820 whole entry): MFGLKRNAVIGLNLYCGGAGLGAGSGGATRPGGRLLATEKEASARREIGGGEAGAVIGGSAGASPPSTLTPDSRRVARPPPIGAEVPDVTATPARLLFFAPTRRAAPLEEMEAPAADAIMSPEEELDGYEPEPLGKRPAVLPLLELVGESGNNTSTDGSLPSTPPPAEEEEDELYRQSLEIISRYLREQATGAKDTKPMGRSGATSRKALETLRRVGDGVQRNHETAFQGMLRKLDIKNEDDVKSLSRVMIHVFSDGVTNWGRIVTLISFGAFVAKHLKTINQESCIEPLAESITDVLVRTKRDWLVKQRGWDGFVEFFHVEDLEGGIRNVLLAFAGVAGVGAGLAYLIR

For CC1(C)CCC(CN2CCN(c3ccc(C(=O)NS(=O)(=O)c4ccc(NCC5CCOCC5)c([N+](=O)[O-])c4)c(Oc4cnc5[nH]ccc5c4)c3)CC2)=C(c2ccc(Cl)cc2)C1 [ABT-199], the “activity to Mcl-1” value (Mcl-1) is listed as “no activity”, the EC50 (RS4;11 cells) is listed as 8 nM and the EC50 (CLL) is listed as 3 nM. For the same compound, the “maximal tumor growth inhibition” value (RS4; 11 xenografts) was 95% and the tumor growth delay (RS4; 11 xenografts) was 152%.

In the case of CN(C)CC[C@H](CSc1ccccc1)Nc1ccc(S(=O)(=O)NC(=O)c2ccc(N3CCN(Cc4ccccc4-c4ccc(Cl)cc4)CC3)cc2)cc1[N+](=O)[O-] [ABT-737], the oral bioavailability [1] is listed as “not orally bioavailable” and the aqueous solubility [2] is listed as “low aqueous solubility”.

For CC1(C)CCC(c2ccc(Cl)cc2)=C(CN2CCN(c3ccc(C(=O)NS(=O)(=O)c4ccc(N[C@H](CCN5CCOCC5)CSc5ccccc5)c(S(=O)(=O)C(F)(F)F)c4)cc3)CC2)C1 [ABT-263], the Ki (Bcl-w) is listed as no more than 1 nM, the IC50 (SCLC H146 cell line) is listed as 110 nM and the TGI (H345 xenograft) is listed as 80%. For the same compound, the “treated tumors indicating at least a 50% reduction in tumor volume” value (H345 xenograft) was 20%, the “tumor response, small-cell lung cancer xenograft models” value [3] was “complete tumor regressions” and the “tumor response, acute lymphoblastic leukemia xenograft models” value [4] was “complete tumor regressions”. For the same compound, the “number of circulating platelets” value (circulating platelets) was “rapid, concentration-dependent decrease”.

In the case of CC1(C)CC(c2ccc(Cl)cc2)=C(CN2CCN(c3ccc(C(=O)NS(=O)(=O)c4ccc(NC[C@H]5COCCO5)c([N+](=O)[O-])c4)c(N4CCCOc5nc6[nH]ccc6cc54)c3)CC2)CO1 [Example 72, 4-(4-[[4-(4-chlorophenyl)-6,6-dimethyl-2,5-dihydropyran-3-yl]methyl]piperazin-1-yl)-N-(4-[[(2S)-1,4-dioxan-2-ylmethyl]amino]-3-nitrobenzenesulfonyl)-2-[14-oxa-2,4,10-triazatricyclo[7.5.0.0^[3,7]]tetradeca-1(9),2,5,7-tetraen-10-yl]benzamide], the IC50 (BCL-2) is reported as 0.01 nM and the IC50 [5] is reported as 0.3 nM.

CC1(C)CCC(CN2CCN(c3ccc(C(=O)NS(=O)(=O)c4ccc(NC[C@H]5COCCO5)c([N+](=O)[O-])c4)c(N4CCCOc5nc(N)ccc54)c3)CC2)=C(c2ccc(Cl)cc2)C1 [Example 39, 2-[7-amino-2H,3H,4H-pyrido[2,3-b][1,4]oxazepin-1-yl]-4-(4-[[2-(4-chlorophenyl)-4,4-dimethylcyclohex-1-en-1-yl]methyl]piperazin-1-yl)-N-(4-[[(2S)-1,4-dioxan-2-ylmethyl]amino]-3-nitrobenzenesulfonyl)benzamide] showed an IC50 (BCL-2; fluorescein-labeled BH3 peptide 15 nM, purified BCL-2 protein 30 nM, 3 hours incubation at room temperature) of 1.5 nM and an IC50 [5] of 544 nM.
